From ChEMBL document CHEMBL5291721, “A preclinical secondary pharmacology resource illuminates target-adverse drug reaction associations of marketed drugs” (Nat Commun, 2023)

How the values were obtained:
Androgen receptor [1] = target: T1, Androgen receptor (Rattus norvegicus, UniProt P15207); assay type: functional
T1 sequence (P15207 whole entry): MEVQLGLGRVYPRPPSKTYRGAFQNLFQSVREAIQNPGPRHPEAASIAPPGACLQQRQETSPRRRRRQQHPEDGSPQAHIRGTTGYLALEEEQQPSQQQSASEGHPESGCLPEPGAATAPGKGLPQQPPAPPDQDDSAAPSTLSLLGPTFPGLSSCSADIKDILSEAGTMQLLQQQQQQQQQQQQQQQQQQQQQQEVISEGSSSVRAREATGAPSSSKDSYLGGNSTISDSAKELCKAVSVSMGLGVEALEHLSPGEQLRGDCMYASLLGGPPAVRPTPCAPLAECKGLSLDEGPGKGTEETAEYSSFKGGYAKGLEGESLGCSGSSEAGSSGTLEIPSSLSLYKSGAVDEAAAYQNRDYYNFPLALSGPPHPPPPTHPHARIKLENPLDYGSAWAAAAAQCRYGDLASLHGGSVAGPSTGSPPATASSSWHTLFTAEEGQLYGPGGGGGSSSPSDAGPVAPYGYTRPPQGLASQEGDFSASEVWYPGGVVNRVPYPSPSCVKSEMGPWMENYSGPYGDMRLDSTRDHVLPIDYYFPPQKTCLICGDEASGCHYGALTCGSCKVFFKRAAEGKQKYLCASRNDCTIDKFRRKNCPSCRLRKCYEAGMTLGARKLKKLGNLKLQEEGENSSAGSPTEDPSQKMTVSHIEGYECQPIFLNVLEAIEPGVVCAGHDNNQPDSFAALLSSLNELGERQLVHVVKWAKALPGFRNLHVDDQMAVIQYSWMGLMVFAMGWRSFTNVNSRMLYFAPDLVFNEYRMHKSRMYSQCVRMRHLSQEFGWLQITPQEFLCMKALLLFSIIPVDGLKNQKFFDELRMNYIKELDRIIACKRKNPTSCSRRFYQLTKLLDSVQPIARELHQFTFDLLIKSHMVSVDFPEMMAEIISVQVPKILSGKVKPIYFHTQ

Androgen receptor [2] = target: T1, Androgen receptor
Cannabinoid receptor 1 = Cannabinoid receptor 1 (Homo sapiens, UniProt P21554)
Histamine H1 receptor = Histamine H1 receptor (Homo sapiens, UniProt P35367); assay type: functional, cell-based
Melanocortin receptor 4 = Melanocortin receptor 4 (Homo sapiens, UniProt P32245)
[3] = target: T2, Alpha-2A adrenergic receptor (Homo sapiens, UniProt P08913)
T2 sequence (P08913 whole entry): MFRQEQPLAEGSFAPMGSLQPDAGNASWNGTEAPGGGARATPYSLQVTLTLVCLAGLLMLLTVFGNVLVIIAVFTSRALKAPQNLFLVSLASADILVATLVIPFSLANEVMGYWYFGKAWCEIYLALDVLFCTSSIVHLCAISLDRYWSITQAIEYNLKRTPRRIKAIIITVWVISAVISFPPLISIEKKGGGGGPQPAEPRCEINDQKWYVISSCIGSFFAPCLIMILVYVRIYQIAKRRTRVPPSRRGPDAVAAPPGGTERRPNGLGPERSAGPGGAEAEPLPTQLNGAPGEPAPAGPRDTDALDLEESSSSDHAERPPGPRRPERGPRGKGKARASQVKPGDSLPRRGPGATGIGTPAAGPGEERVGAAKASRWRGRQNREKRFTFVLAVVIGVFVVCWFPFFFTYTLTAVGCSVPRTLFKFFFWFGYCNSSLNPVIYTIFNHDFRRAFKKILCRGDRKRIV

[4] = target: 5-hydroxytryptamine receptor 2A (Homo sapiens, UniProt P28223)
[5] = target: Neurotensin receptor type 1 (Homo sapiens, UniProt P30989)
Progesterone receptor = target: T3, Progesterone receptor (Homo sapiens, UniProt P06401)
T3 sequence (P06401 whole entry): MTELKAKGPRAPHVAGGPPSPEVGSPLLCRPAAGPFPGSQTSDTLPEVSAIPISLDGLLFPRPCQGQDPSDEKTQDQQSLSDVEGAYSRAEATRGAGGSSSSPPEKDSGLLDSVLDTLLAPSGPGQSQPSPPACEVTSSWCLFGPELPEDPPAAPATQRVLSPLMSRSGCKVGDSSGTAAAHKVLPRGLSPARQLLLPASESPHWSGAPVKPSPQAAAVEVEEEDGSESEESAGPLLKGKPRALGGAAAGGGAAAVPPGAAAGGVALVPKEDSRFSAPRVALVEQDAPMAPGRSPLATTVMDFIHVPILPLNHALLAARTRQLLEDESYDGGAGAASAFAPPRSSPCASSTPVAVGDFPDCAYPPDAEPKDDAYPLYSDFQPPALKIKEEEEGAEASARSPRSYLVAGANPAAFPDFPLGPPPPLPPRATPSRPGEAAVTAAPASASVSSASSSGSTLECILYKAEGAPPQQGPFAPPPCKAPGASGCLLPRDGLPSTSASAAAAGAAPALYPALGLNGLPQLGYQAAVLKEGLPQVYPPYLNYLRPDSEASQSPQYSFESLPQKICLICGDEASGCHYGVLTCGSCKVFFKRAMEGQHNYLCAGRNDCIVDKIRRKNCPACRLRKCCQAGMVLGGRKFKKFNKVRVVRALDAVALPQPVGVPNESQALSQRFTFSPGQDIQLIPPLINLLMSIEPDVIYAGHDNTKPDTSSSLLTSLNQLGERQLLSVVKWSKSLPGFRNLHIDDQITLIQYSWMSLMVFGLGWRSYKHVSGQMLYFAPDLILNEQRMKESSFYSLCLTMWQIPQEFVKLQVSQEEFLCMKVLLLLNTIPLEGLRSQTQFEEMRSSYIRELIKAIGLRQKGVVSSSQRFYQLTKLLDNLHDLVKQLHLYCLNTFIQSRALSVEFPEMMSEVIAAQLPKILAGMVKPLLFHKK

[6] = target: T4, 5-hydroxytryptamine receptor 1A (Homo sapiens, UniProt P08908)
T4 sequence (P08908 whole entry): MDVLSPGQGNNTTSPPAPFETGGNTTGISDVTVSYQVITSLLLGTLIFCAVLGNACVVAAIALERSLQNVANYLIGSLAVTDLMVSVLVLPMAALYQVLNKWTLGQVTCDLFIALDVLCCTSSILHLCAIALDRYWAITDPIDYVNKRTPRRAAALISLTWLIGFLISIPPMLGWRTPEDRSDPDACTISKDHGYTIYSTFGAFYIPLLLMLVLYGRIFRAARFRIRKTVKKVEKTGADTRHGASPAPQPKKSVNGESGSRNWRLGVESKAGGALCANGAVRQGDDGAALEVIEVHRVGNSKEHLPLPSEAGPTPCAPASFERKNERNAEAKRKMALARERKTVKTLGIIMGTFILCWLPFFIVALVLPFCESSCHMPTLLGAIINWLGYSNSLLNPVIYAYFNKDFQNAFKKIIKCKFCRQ
Note: assay procedure not described here.

Sequence of Cannabinoid receptor 1 (P21554 whole entry): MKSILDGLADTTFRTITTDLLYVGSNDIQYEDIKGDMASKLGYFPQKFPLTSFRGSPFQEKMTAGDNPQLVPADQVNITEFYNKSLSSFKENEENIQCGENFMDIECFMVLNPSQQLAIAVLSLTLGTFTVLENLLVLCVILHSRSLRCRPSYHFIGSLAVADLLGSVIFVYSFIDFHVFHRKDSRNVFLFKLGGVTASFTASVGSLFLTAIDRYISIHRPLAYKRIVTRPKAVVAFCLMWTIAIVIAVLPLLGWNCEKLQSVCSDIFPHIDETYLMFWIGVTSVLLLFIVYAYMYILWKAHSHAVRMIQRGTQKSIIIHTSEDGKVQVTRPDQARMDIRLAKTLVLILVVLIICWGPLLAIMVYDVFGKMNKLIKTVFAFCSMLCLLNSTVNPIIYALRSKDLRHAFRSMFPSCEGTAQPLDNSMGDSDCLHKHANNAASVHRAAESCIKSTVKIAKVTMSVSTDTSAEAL
Sequence of 5-hydroxytryptamine receptor 2A (P28223 whole entry): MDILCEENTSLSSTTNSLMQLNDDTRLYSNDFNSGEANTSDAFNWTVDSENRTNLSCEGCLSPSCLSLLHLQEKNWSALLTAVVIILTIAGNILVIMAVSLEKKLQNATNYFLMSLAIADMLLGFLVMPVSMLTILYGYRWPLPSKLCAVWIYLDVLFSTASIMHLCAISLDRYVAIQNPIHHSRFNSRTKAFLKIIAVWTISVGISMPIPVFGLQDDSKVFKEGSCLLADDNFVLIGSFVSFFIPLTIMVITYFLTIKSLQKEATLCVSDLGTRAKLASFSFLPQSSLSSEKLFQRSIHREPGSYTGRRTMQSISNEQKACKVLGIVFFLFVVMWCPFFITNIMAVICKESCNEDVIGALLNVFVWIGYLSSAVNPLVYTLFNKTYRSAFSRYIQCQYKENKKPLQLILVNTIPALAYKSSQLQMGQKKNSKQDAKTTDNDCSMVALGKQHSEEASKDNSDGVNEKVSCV
Sequence of Histamine H1 receptor (P35367 whole entry): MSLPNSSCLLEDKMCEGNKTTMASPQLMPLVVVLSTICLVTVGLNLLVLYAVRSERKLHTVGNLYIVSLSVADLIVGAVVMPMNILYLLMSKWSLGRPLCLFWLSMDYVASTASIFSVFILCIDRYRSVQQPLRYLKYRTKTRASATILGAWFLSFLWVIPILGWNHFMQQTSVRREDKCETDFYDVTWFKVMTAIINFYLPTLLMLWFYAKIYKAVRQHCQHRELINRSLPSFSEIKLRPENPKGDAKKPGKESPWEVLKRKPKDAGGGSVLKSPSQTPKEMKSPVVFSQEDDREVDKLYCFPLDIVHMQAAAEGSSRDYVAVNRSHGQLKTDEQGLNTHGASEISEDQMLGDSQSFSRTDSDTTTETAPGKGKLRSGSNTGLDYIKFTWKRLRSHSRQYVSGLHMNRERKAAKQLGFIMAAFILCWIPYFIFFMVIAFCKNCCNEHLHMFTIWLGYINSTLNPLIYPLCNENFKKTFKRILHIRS
Sequence of Neurotensin receptor type 1 (P30989 whole entry): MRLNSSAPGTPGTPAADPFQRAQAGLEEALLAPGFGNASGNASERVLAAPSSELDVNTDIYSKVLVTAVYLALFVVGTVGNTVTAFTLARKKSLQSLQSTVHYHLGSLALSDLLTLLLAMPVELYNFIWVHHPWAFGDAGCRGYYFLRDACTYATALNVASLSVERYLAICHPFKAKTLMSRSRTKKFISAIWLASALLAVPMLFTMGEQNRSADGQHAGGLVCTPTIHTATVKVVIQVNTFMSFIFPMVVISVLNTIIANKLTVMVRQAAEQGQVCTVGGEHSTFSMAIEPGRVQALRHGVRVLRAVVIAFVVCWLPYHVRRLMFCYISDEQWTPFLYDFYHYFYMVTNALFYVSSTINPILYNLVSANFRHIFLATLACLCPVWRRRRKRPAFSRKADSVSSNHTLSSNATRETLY
Sequence of Melanocortin receptor 4 (P32245 whole entry): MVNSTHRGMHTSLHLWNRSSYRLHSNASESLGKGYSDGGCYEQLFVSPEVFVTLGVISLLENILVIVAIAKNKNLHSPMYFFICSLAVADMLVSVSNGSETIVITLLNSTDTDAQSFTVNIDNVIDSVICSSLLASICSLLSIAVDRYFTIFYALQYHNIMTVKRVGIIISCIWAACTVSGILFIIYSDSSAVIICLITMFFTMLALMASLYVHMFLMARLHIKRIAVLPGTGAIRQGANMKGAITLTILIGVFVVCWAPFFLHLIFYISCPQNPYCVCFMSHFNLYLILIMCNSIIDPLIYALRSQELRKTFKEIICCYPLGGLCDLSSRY

| SMILES | AC50 (Androgen receptor [1]) | AC50 (Androgen receptor [2]) | AC50 (Cannabinoid receptor 1) | AC50 (Histamine H1 receptor) | AC50 (Melanocortin receptor 4) | AC50 [3] | AC50 [4] | AC50 [5] | AC50 (Progesterone receptor) | AC50 [6] |
| --- | --- | --- | --- | --- | --- | --- | --- | --- | --- | --- |
| CCN(CC)C(=O)C1CN2CCc3cc(OC)c(OC)cc3C2CC1OC(C)=O (stereo not drawn) [BENZQUINAMIDE] | > 30 µM | > 10 µM | > 10 µM | > 30 µM | > 10 µM | 3.03 µM | 0.588 µM | – | – | – |
| CCCC(C)(COC(N)=O)COC(=O)NC(C)C (stereo not drawn) [CARISOPRODOL] | – | – | > 10 µM | > 30 µM | > 30 µM | > 10 µM | > 10 µM | > 30 µM | > 30 µM | > 10 µM |
| COCCOC(=O)C1=C(C)NC(C)=C(C(=O)OC/C=C/c2ccccc2)C1c1cccc([N+](=O)[O-])c1 (stereo not drawn) [CILNIDIPINE] | – | – | – | > 30 µM | – | – | – | – | – | – |
| CC(C)(C)NCC(O)c1cc(Cl)c(N)c(Cl)c1 (stereo not drawn) [CLENBUTEROL] | > 30 µM | > 30 µM | > 30 µM | – | > 30 µM | – | – | – | – | – |
| Clc1ccc2c(c1)C(c1ccccc1)=NCc1nncn1-2 [ESTAZOLAM] | – | > 30 µM | – | – | > 30 µM | – | – | – | > 30 µM | > 10 µM |
| CC(=O)OCC(CCn1cnc2cnc(N)nc21)COC(C)=O [FAMCICLOVIR] | – | > 30 µM | > 10 µM | – | > 30 µM | > 10 µM | – | > 30 µM | > 30 µM | > 10 µM |
| Nc1nc(F)nc2c1ncn2[C@@H]1O[C@H](COP(=O)(O)O)[C@@H](O)[C@@H]1O [FLUDARABINE PHOSPHATE] | – | > 30 µM | > 30 µM | – | > 30 µM | – | – | – | – | – |
| O=C(O)c1ccccc1Nc1cccc(C(F)(F)F)c1 [FLUFENAMIC ACID] | – | > 30 µM | > 10 µM | – | > 30 µM | – | 0.0771 µM | > 30 µM | > 30 µM | > 10 µM |
| COC1=C(OC)C(=O)C(CCCCCCCCCCO)=C(C)C1=O [IDEBENONE] | – | > 30 µM | > 10 µM | – | > 30 µM | > 10 µM | – | > 30 µM | 27.6 µM | > 10 µM |
| CC1(C)C(/C=C/C=C/C=C/C=C2\N(CCCCS(=O)(=O)O)c3ccc4ccccc4c3C2(C)C)=[N+](CCCCS(=O)(=O)[O-])c2ccc3ccccc3c21 [INDOCYANINE GREEN ACID FORM] | > 30 µM | – | – | > 30 µM | – | – | – | – | – | – |
| CCCC[C@H](C)C[C@H](O)/C=C/[C@H]1[C@H](O)CC(=O)[C@@H]1CCCC/C=C/C(=O)O [LIMAPROST] | > 30 µM | – | – | > 30 µM | – | – | – | – | – | – |
| CC#CCn1c(N2CCC[C@@H](N)C2)nc2c1c(=O)n(Cc1nc(C)c3ccccc3n1)c(=O)n2C [LINAGLIPTIN] | – | > 30 µM | > 10 µM | – | 41.8 µM | > 10 µM | > 10 µM | – | > 30 µM | > 10 µM |
| Cc1ccc(NC(=O)C2(c3ccc4c(c3)OC(F)(F)O4)CC2)nc1-c1cccc(C(=O)O)c1 [LUMACAFTOR] | > 30 µM | – | – | > 30 µM | – | – | – | – | – | – |
| CCOC(=O)Nc1ccc2c(c1)N(C(=O)CCN1CCOCC1)c1ccccc1S2 [MORICIZINE] | > 30 µM | – | – | > 30 µM | – | – | – | – | – | – |
| O=C1Nc2ccc(Cl)cc2C(c2ccccc2)=NC1O (stereo not drawn) [OXAZEPAM] | – | – | > 10 µM | > 30 µM | > 30 µM | > 10 µM | > 10 µM | > 30 µM | > 30 µM | > 10 µM |
| CC1(C)C(C=C(Cl)Cl)C1C(=O)OCc1cccc(Oc2ccccc2)c1 (stereo not drawn) [PERMETHRIN] | – | > 30 µM | 18.2 µM | – | > 10 µM | > 10 µM | – | – | – | – |
| Cc1ccc(=O)n(-c2ccccc2)c1 [PIRFENIDONE] | – | – | – | > 30 µM | – | – | > 10 µM | – | – | – |
| NC(=O)CCC/N=C(\c1ccc(Cl)cc1)c1cc(F)ccc1O [PROGABIDE] | – | > 10 µM | > 10 µM | – | > 10 µM | – | > 10 µM | – | – | – |
| Cc1ccc2c(-c3ccccc3)nc(=O)n(C(C)C)c2c1 [PROQUAZONE] | 15 µM | – | – | > 30 µM | – | – | – | – | – | – |
| CN1CCN(c2c(F)cc3c(=O)c(C(=O)O)cn4c3c2SCC4)CC1 [RUFLOXACIN] | – | – | – | > 30 µM | – | – | – | – | – | – |
| CN1c2ccccc2C(NCCCCCCC(=O)O)c2ccc(Cl)cc2S1(=O)=O (stereo not drawn) [TIANEPTINE] | – | – | – | > 30 µM | – | – | – | – | – | – |
| N#C[C@@H]1CCCN1C(=O)CNC12CC3CC(CC(O)(C3)C1)C2 [VILDAGLIPTIN] | – | > 30 µM | > 30 µM | – | > 30 µM | > 10 µM | > 10 µM | > 10 µM | > 30 µM | > 10 µM |
